Test results taken from patent US5516784A, “Anti-HIV (AIDS) agents” (Schering Corporation, priority 1994, dated 1996).

What follows are compounds tested against T1, HIV1 protease (Human immunodeficiency virus type 1 group M subtype B, UniProt P04585) (assay: Test 3: inhibition of proteolytic activity of HIV-1 protease by scintillation proximity assay (SPA)). Settings: IC50 >500 nM; read-out: Enzyme Assays (SPA) % inhibition.
Format: biochemical
From the text: TEST 3-INHIBITION OF PROTEOLYTIC ACTIVITY OF HIV-1-PROTEASE AS DETERMINED BY SCINTILLATION […] ASSAY (SPA).
This is an alternative assay to test #1 and is used to determine the ability of compounds to inhibit the HIV1 protease activity. The SPA assay for HIV1 protease has been developed by Amersham Corporation, Arlington Heights, Ill., and is available for commercial use. In this system the substrate for HIV1 protease, AcN-(I^125)[…]SPA bead, is cleaved by the HIV1 protease at the Phe-Phe bond releasing the I^125 -labelled peptide fragment from the SPA bead. This event causes removal of detectable signal from the microsphere bead indicated by reduction in radioactivity (measured in CPM), which is proportional to the proteolytic activity. The substrate, and the HIV 1 protease were incubated in presence of synthetic compound in various dilutions at room temperature for 40 minutes, and the concentration of the compound required to inhibit the proteolytic activity by 50% (IC50) was determined.

| Compound | inhibition at 0.5 µM |
| --- | --- |
| CCC(C)[C@H](NC(=O)c1ccc2ccccc2n1)C(=O)N[C@@H](Cc1ccccc1)[C@H](O)COc1ccccc1C(=O)NC(C)(C)C (stereo partly drawn) [Compound 38] | 46% |
| CC(C)(C)NC(=O)c1ccccc1OC[C@H](O)[C@H](Cc1ccccc1)NC(=O)[C@H](CC(N)=O)NC(=O)c1nc2ccccc2nc1O [Compound 63] | 35% |
| CC(C)(C)NC(=O)c1ccccc1OC[C@@H](O)[C@H](Cc1ccccc1)NC(=O)[C@H](CC(N)=O)NC(=O)c1nc2ccccc2nc1O [Compound 64] | 36% |
| CC(C)(C)NC(=O)c1ccccc1OC[C@@H](O)[C@H](Cc1ccccc1)NC(=O)[C@H](CC(N)=O)NC(=O)c1cnc2nc(N)nc(O)c2n1 [Compound 68] | 36% |

Same assay, conditions: SPA; room temperature, 40 minutes; read-out: Enzyme Assays (SPA) IC50

| Compound | IC50 |
| --- | --- |
| NC(=O)C[C@H](NC(=O)c1ccc2ccccc2n1)C(=O)N[C@@H](Cc1ccccc1)[C@H](O)CSC1CCCC1C(=O)Nc1ccccc1 (single isomer, unassigned) [Compound 15] | > 200 nM |
| NC(=O)C[C@H](NC(=O)c1ccc2ccccc2n1)C(=O)N[C@@H](Cc1ccccc1)[C@H](O)CSC1CCCC1C(=O)Nc1ccccc1 (single isomer, unassigned) [Compound 17] | 200 nM |
| CC(C)(C)NC(=O)c1cccnc1OC[C@H](O)[C@H](Cc1ccccc1)NC(=O)[C@H](CC(N)=O)NC(=O)c1ccc2ccccc2n1 [Compound 6] | > 500 nM |
| CC(C)(C)NC(=O)c1c(OC[C@@H](O)[C@H](Cc2ccccc2)NC(=O)[C@H](CC(N)=O)NC(=O)c2ccc3ccccc3n2)ccc2ccccc12 [Compound 10] | 110 nM |
| CC(C)(C)NC(=O)c1cc2ccccc2cc1OC[C@@H](O)[C@H](Cc1ccccc1)NC(=O)[C@H](CC(N)=O)NC(=O)c1ccc2ccccc2n1 [Compound 11] | 280 nM |
| CC(C)(C)NC(=O)c1ccc2ccccc2c1OC[C@@H](O)[C@H](Cc1ccccc1)NC(=O)[C@H](CC(N)=O)NC(=O)c1ccc2ccccc2n1 [Compound 12] | 230 nM |
| NC(=O)C[C@H](NC(=O)c1ccc2ccccc2n1)C(=O)N[C@@H](Cc1ccccc1)[C@@H](O)CSC1CCCC1C(=O)Nc1ccccc1 (stereo partly drawn) [Compound 14] | > 200 nM |
| NC(=O)C[C@H](NC(=O)c1ccc2ccccc2n1)C(=O)N[C@@H](Cc1ccccc1)[C@H](O)CSC1CCCC1C(=O)Nc1ccccc1 (stereo partly drawn) [Compound 21] | > 200 nM |
| NC(=O)C[C@H](NC(=O)c1ccc2ccccc2n1)C(=O)N[C@@H](Cc1ccccc1)[C@@H](O)CSc1nc2ccccc2[nH]1 [Compound 22] | > 200 nM |
| CC(C)(C)NC(=O)c1ccc(SC[C@H](O)[C@H](Cc2ccccc2)NC(=O)[C@H](CC(N)=O)NC(=O)c2ccc3ccccc3n2)cc1 [Compound 23] | > 200 nM |
| CC(C)(C)NC(=O)c1ccc(SC[C@@H](O)[C@H](Cc2ccccc2)NC(=O)[C@H](CC(N)=O)NC(=O)c2ccc3ccccc3n2)cc1 [Compound 24] | > 200 nM |
| CC(C)(C)NC(=O)c1cccc(SC[C@H](O)[C@H](Cc2ccccc2)NC(=O)[C@H](CC(N)=O)NC(=O)c2ccc3ccccc3n2)c1 [Compound 25] | > 200 nM |
| CC(C)(C)NC(=O)c1cccc(SC[C@@H](O)[C@H](Cc2ccccc2)NC(=O)[C@H](CC(N)=O)NC(=O)c2ccc3ccccc3n2)c1 [Compound 26] | > 200 nM |
| CC(C)(C)NC(=O)CCSC[C@@H](O)[C@H](Cc1ccccc1)NC(=O)[C@H](CC(N)=O)NC(=O)c1ccc2ccccc2n1 [Compound 28] | > 200 nM |
| NC(=O)C[C@H](NC(=O)c1ccc2ccccc2n1)C(=O)N[C@@H](Cc1ccccc1)[C@@H](O)CSc1ccccc1C(=O)NC12CC3CC(CC(C3)C1)C2 [Compound 29] | > 200 nM |
| CC(C)(C)NC(=O)c1ccccc1SC[C@@H](O)[C@H](Cc1ccccc1)NC(=O)[C@H](Cc1ccccc1)NC(=O)c1ccc2ccccc2n1 [Compound 34] | > 200 nM |

| Compound | IC50 |
| --- | --- |
| CCC(C)[C@H](NC(=O)c1ccc2ccccc2n1)C(=O)N[C@@H](Cc1ccccc1)[C@H](O)CSc1ccccc1C(=O)NC(C)(C)C (stereo partly drawn) [Compound 36] | 132 nM |
| CCC(C)[C@H](NC(=O)c1ccc2ccccc2n1)C(=O)N[C@@H](Cc1ccccc1)[C@H](O)COc1ccccc1C(=O)NC(C)(C)C (stereo partly drawn) [Compound 38] | > 500 nM |
| CCC(C)C(NC(=O)c1ccc2ccccc2n1)C(=O)N[C@@H](Cc1ccccc1)[C@H](O)CSc1ccccc1C(=O)NC(C)(C)C (stereo partly drawn) [Compound 39] | > 200 nM |
| CN(C)C(=O)C[C@H](NC(=O)c1ccc2ccccc2n1)C(=O)N[C@@H](Cc1ccccc1)[C@H](O)CSc1ccccc1C(=O)NC(C)(C)C [Compound 42] | > 200 nM |
| CC(C)(C)NC(=O)c1ccccc1OC[C@@H](O)[C@H](Cc1ccccc1)NC(=O)[C@H](CC(N)=O)NC(=O)c1cnc2ccccc2n1 [Compound 60] | 48 nM |
| CC(C)(C)NC(=O)c1ccccc1OC[C@H](O)[C@H](Cc1ccccc1)NC(=O)[C@H](CC(N)=O)NC(=O)c1cc(O)c2ccccc2n1 [Compound 61] | 410 nM |
| CC(C)(C)NC(=O)c1ccccc1OC[C@H](O)[C@H](Cc1ccccc1)NC(=O)[C@H](CC(N)=O)NC(=O)c1nc2ccccc2nc1O [Compound 63] | > 500 nM |
| CC(C)(C)NC(=O)c1ccccc1OC[C@@H](O)[C@H](Cc1ccccc1)NC(=O)[C@H](CC(N)=O)NC(=O)c1nc2ccccc2nc1O [Compound 64] | > 500 nM |
| CC(C)(C)NC(=O)c1ccccc1OC[C@H](O)[C@H](Cc1ccccc1)NC(=O)[C@H](CC(N)=O)NC(=O)c1cnnc2ccccc12 [Compound 65] | 500 nM |
| CC(C)(C)NC(=O)c1ccccc1OC[C@@H](O)[C@H](Cc1ccccc1)NC(=O)[C@H](CC(N)=O)NC(=O)c1cnnc2ccccc12 [Compound 66] | 124 nM |
| CC(C)(C)NC(=O)c1ccccc1OC[C@@H](O)[C@H](Cc1ccccc1)NC(=O)[C@H](CC(N)=O)NC(=O)c1cnc2nc(N)nc(O)c2n1 [Compound 68] | > 500 nM |
| Cc1c(C)c2c(c(C)c1O)CCC(C)(C(=O)N[C@@H](CC(N)=O)C(=O)N[C@@H](Cc1ccccc1)[C@@H](O)COc1ccccc1C(=O)NC(C)(C)C)O2 (stereo partly drawn) [Compound 71] | 245 nM |
| CC(C)(C)NC(=O)c1ccccc1OC[C@@H](O)[C@H](CCc1ccccc1)NC(=O)[C@H](CC(N)=O)NC(=O)c1ccc2ccccc2n1 [Compound 76] | > 500 nM |
| CCC(C)[C@H](NC(=O)OC(C)(C)C)C(=O)N[C@@H](Cc1ccccc1)[C@H](O)CSc1ccccc1C(=O)NC(C)(C)C (stereo partly drawn) [IN 7] | > 500 nM |
| CC(C)(C)NC(=O)c1ccccc1OC[C@@H](O)[C@H](Cc1ccccc1)NC(=O)[C@H](CC(N)=O)NC(=O)OCc1ccccc1 [IN 8] | 125 nM |

Same assay, conditions: read-out: Enzyme Assays (SPA) IC50

| Compound | IC50 |
| --- | --- |
| CC(C)(C)NC(=O)c1ccccc1OC[C@H](O)[C@H](Cc1ccccc1)NC(=O)[C@H](CC(N)=O)NC(=O)c1ccc2c(c1)C(=O)c1ccccc1C2=O [Compound 69] | 84 nM |
| CC(C)(C)NC(=O)c1ccccc1OC[C@@H](O)[C@H](Cc1ccccc1)NC(=O)[C@H](CC(N)=O)NC(=O)c1ccc2c(c1)C(=O)c1ccccc1C2=O [Compound 70] | 55 nM |
| CC(C)(C)NC(=O)c1ccccc1OC[C@H](O)[C@H](Cc1ccccc1)NC(=O)[C@H](CC(N)=O)NS(=O)(=O)c1ccc2ccccc2c1 [Compound 73] | 425 nM |

These compounds were tested against T1, HIV1 protease (assay: Test 1: inhibition of proteolytic activity of HIV-1 protease (HPLC)). Settings: HPLC; HIV Substrate III; read-out: Enzyme Assays (HPLC) IC50.
Format: biochemical
Parameters: proteolytic activity of HIV-1 protease
Procedure: TEST I-INHIBITION OF PROTEOLYTIC ACTIVITY OF HIV-1-PROTEASE
The ability of compounds of the invention to inhibit the proteolytic activity of HIV-1 protease was determined by using the method of Louis, et al., Biochem. Biophys. Res. Comm. 159:87-94, (1989), which is herein incorporated by reference. In using the method of Louis et al., HIV Substrate III, His-Lys-Ala-Arg-VaI-Leu-pNO2 Phe-Glu-Ala-Nle-Ser-NH2 purchased from Bachem Bioscience, Inc. Philadelphia, Pa. was used in place of the nonapeptide substrate […]amide.

| Compound | IC50 |
| --- | --- |
| NC(=O)C[C@H](NC(=O)c1ccc2ccccc2n1)C(=O)N[C@@H](Cc1ccccc1)[C@@H](O)CSc1ncccn1 [Compound 1] | > 50 nM |
| CCCCNC(=O)c1ccccc1S(=O)(=O)C[C@H](O)[C@H](Cc1ccccc1)NC(=O)[C@H](CC(N)=O)NC(=O)c1ccc2ccccc2n1 [Compound 9] | > 500 nM |
| NC(=O)C[C@H](NC(=O)c1ccc2ccccc2n1)C(=O)N[C@@H](Cc1ccccc1)[C@@H](O)CSC1CCCC1C(=O)Nc1ccccc1 (stereo partly drawn) [Compound 16] | > 500 nM |
| NC(=O)C[C@H](NC(=O)c1ccc2ccccc2n1)C(=O)N[C@@H](Cc1ccccc1)[C@@H](O)CSC1CCCC1C(=O)Nc1ccccc1 (stereo partly drawn) [Compound 18] | > 500 nM |
| CC(C)(C)NC(=O)CCSC[C@H](O)[C@H](Cc1ccccc1)NC(=O)[C@H](CC(N)=O)NC(=O)c1ccc2ccccc2n1 [Compound 27] | > 500 nM |
| NC(=O)C[C@H](NC(=O)c1ccc2ccccc2n1)C(=O)N[C@@H](Cc1ccccc1)[C@H](O)CSc1ccccc1C(=O)NC12CC3CC(CC(C3)C1)C2 [Compound 30] | > 50 nM |
| CC(C)(C)NC(=O)c1ccccc1SC[C@H](O)[C@H](Cc1ccccc1)NC(=O)[C@@H]1CCCN1C(=O)c1ccc2ccccc2n1 [Compound 32] | > 50 nM |
| CC(C)(C)NC(=O)c1ccccc1SC[C@H](O)[C@H](Cc1ccccc1)NC(=O)[C@H](Cc1ccccc1)NC(=O)c1ccc2ccccc2n1 [Compound 33] | > 500 nM |
| CN(C)C(=O)C[C@H](NC(=O)c1ccc2ccccc2n1)C(=O)N[C@@H](Cc1ccccc1)[C@@H](O)CSc1ccccc1C(=O)NC(C)(C)C [Compound 41] | > 100 nM |
| COc1ccc(C[C@H](NC(=O)c2ccc3ccccc3n2)C(=O)N[C@@H](Cc2ccccc2)[C@@H](O)CSc2ccccc2C(=O)NC(C)(C)C)cc1 [Compound 43] | > 100 nM |
| CSCC[C@H](NC(=O)c1ccc2ccccc2n1)C(=O)N[C@@H](Cc1ccccc1)[C@@H](O)CSc1ccccc1C(=O)NC(C)(C)C [Compound 44] | > 100 nM |
| CC(C)(C)NC(=O)c1ccccc1S(=O)(=O)C[C@H](O)[C@H](Cc1ccccc1)NC(=O)[C@H](CCS(C)(=O)=O)NC(=O)c1ccc2ccccc2n1 [Compound 45] | > 100 nM |

Same assay, conditions: intermediate compound; read-out: IC50 in Test 1, Inhibition of Proteolytic Activity of HIV-1-Protease

| Compound | IC50 |
| --- | --- |
| CC(C)(C)NC(=O)c1ccccc1SCC(O)C(Cc1ccccc1)NC(=O)OC(C)(C)C (stereo not drawn) | 3000 nM |
